Reference: ChEMBL document CHEMBL1137656, “Effects of serum on in vitro susceptibility testing of echinocandins” (Antimicrob Agents Chemother, 2007)
Numbered stars: 1 amine (or outer) side, 2 acyl side, 3 side chain; on linkers, the order of the positions; unused ones are H or OH. Bridge positions count the residues as written; N and C are the ends. Square brackets hold non-standard residues; d marks the D form. Peptide text beside a SMILES is read from it. * marks the point of attachment. hTyr(3S-OH,4S-OH,3'-OSO3H) = N[C@H](C(=O)O)[C@H](O)[C@@H](O)c1ccc(O)c(OS(=O)(=O)O)c1; pTerphenylCO(4''-OnC5H11) = CCCCCOc1ccc(-c2ccc(-c3ccc(C(=O)*)cc3)cc2)cc1; Orn(4R-OH,5R-OH) = O=C([C@H](C[C@@H](O)[C@@H](O)N[*:3])N[*:1])[*:2]; hTyr(3S-OH,4S-OH) = N[C@H](C(=O)O)[C@H](O)[C@@H](O)c1ccc(O)cc1; Pro(3S-OH,4S-Me) = C[C@H]1CN[C@H](C(=O)O)[C@H]1O; X1 = CCCCCOc1ccc(-c2cc(-c3ccc(C(=O)*)cc3)no2)cc1; Gln(3R-OH) = NC(=O)C[C@@H](O)[C@H](N)C(=O)O; Hyp = O=C(O)[C@@H]1C[C@@H](O)CN1

How the values were obtained:
[1] = system: Pichia kudriavzevii; test: Ratio of MIC50 for Candida krusei ATCC 6258 in presence of 50% human serum to MIC50 for Candida krusei ATCC 6258 in presence of RPMI 1640 medium; format: functional
[2] = system: Clavispora lusitaniae; test: Antifungal activity against Candida lusitaniae isolate 0013-002 after 24 hrs by CLSI M27-A2 broth microdilution method in presence of RPMI 1640 medium; format: functional; settings: isolate 0013-002, 24 h
[3] = system: Aspergillus fumigatus; test: Antifungal activity against Aspergillus fumigatus isolate 0020-018 after 24 hrs by CLSI M38-A broth microdilution method in presence of RPMI 1640 medium; format: functional; settings: isolate 0020-018, 24 h
[4] = system: Aspergillus niger; test: Antifungal activity against Aspergillus niger isolate 0001-073 after 24 hrs by CLSI M38-A broth microdilution method in presence of RPMI 1640 medium; format: functional; settings: isolate 0001-073, 24 h
[5] = system: Pichia kudriavzevii; test: Antifungal activity against Candida krusei isolate 0013-054 after 24 hrs by CLSI M27-A2 broth microdilution method in presence of 50% human serum; format: functional; settings: isolate 0013-054, 24 h
[6] = system: Aspergillus fumigatus; test: Antifungal activity against Aspergillus fumigatus isolate 0020-018 after 24 hrs by CLSI M38-A broth microdilution method in presence of 50% human serum; format: functional; settings: isolate 0020-018, 24 h
[7] = system: Aspergillus flavus; test: Antifungal activity against Aspergillus flavus isolate 0001-061 after 24 hrs by CLSI M38-A broth microdilution method in presence of RPMI 1640 medium; format: functional; settings: isolate 0001-061, 24 h
[8] = Protein binding in human serum at 1 to 1000 ug/mL by scintillation counting; format: ADME, cell-free; settings: read-out: PB (converted)
[9] = Protein binding in mouse serum at 1 to 1000 ug/mL by scintillation counting; format: ADME, cell-free; settings: read-out: PB (converted)

MIC50 [2] [µg/mL] | MIC50 [3] [µg/mL] | MIC50 [4] [µg/mL] | MIC50 [5] [µg/mL] | MIC50 [6] [µg/mL] | MIC50 [7] [µg/mL] | fraction unbound [8] | fraction unbound [9] | SMILES | Ratio [1]
0.008 | 0.0156 | 0.002 | 8 | 0.5 | 0.125 |  |  | CCCCCOc1ccc(-c2cc(-c3ccc(C(=O)N[C@H]4C[C@@H](O)[C@@H](O)NC(=O)[C@@H]5[C@@H](O)[C@@H](C)CN5C(=O)[C@H]([C@H](O)CC(N)=O)NC(=O)[C@H]([C@H](O)[C@@H](O)c5ccc(O)c(OS(=O)(=O)O)c5)NC(=O)[C@@H]5C[C@@H](O)CN5C(=O)[C@H]([C@@H](C)O)NC4=O)cc3)no2)cc1 [MICAFUNGIN] (X1-[Orn(4R-OH,5R-OH)]T[Hyp][hTyr(3S-OH,4S-OH,3'-OSO3H)][Gln(3R-OH)][Pro(3S-OH,4S-Me)]; lactam 1-C) | 128
0.25 | 16 | 0.0004 | 2 | 128 | 128 | 0.04 | 0.04 | CC[C@H](C)C[C@H](C)CCCCCCCCC(=O)N[C@H]1C[C@@H](O)[C@@H](NCCN)NC(=O)[C@@H]2[C@@H](O)CCN2C(=O)[C@H]([C@H](O)CCN)NC(=O)[C@H]([C@H](O)[C@@H](O)c2ccc(O)cc2)NC(=O)[C@@H]2C[C@@H](O)CN2C(=O)[C@H]([C@@H](C)O)NC1=O [CASPOFUNGIN] | 8

SMILES | MIC50 [2] [µg/mL] | MIC50 [3] [µg/mL] | MIC50 [4] [µg/mL] | MIC50 [5] [µg/mL] | MIC50 [6] [µg/mL] | MIC50 [7] [µg/mL] | fraction unbound [8] | fraction unbound [9] | Ratio [1]
CCCCCOc1ccc(-c2ccc(-c3ccc(C(=O)N[C@H]4C[C@@H](O)[C@@H](O)NC(=O)[C@@H]5[C@@H](O)[C@@H](C)CN5C(=O)[C@H]([C@@H](C)O)NC(=O)[C@H]([C@H](O)[C@@H](O)c5ccc(O)cc5)NC(=O)[C@@H]5C[C@@H](O)CN5C(=O)[C@H]([C@@H](C)O)NC4=O)cc3)cc2)cc1 [ANIDULAFUNGIN] ({pTerphenylCO(4''-OnC5H11)}-[Orn(4R-OH,5R-OH)]T[Hyp][hTyr(3S-OH,4S-OH)]T[Pro(3S-OH,4S-Me)]; lactam 1-C) | 0.002 | 0.5 | 0.001 | 4 | 128 | 4 |  |  | 16
